Reference: US8956622B2, “Peptidic antagonists of class III semaphorins/neuropilins complexes” (INSERM—Institut National de la Sante et de la Recherche …, priority 2005, dated 2015)

Columns and labels:
[1] = system: COS-1 cells expressing NRP1 and Plexin-A1; test: COS cellular collapses triggered by Sema3A; format: cell-based; details: peptide 10^−9 M, 1 hour pre-incubation, Sema 3A 4 hours
Method: Nevertheless, the artificial expression of NRP1 and Plexin-A1 in COS cells allows Sema 3A to trigger cellular collapses. To investigate the effect of the pTM-NRP1 peptide on the Sema3A functional properties, the shape of COS cells expressing NRP1 and Plexin-A1 was analyzed in the presence or not of Sema 3A and of pTM-NRP1 or pTM-NRP1^mut peptide.
COS-1 cells have been transfected by 1 μg of pBK-CMV (STRATAGENE) plasmids containing NRP1 and plexin-A1 coding sequences (provided by Pr. PUSCHEL; MUNSTER Universitat, Germany) with LIPOFECTAMINE 2000 (IN VITROGEN) according to the manufacturer's instructions in 6-well plates. Stably COS-1 transfected cells have been selected with 0.7% geneticine. Stably transfected COS-1 cells have been cultured on 12-well plates with previously poly-L-lysine-coated glass coverslips. Cells have been then incubated 1 hour with pTM-NRP1 or pTM-NRP1^mut peptide (10^−9M) at 37° C. The culture medium has been then removed and replaced by conditioned medium of HEK cells stably transfected or not with a construction expressing Sema 3A (100 μl/ml D-MEM) for 4 hours at 37° C. Finally, cells have been fixed with 2% formaldehyde for 30 minutes followed by 15 minutes in formaldehyde 4%. For each condition tested, about 400 cells have been analyzed.

[2] = molecular target: T1, NRP1 (Homo sapiens, UniProt O14786); test: AP-Sema3A binding to NRP1-expressing COS cells (optical density per cell); details: peptide 10^−9 M, 1 hour pre-incubation
T1 construct: mutations were introduced into the TM domain of a full length NRP1; expressed in transfected cells; host or cells: COS-1 cells, pBK-CMV plasmid (cDNA provided by Pr. Puschel)
Method: NRP1 expressing COS cells were incubated with AP-Sema3A, a fusion protein of Sema3A and the secreted alkaline phosphatase (BAGNARD et al., 1998).
Wild-type COS cells or NRP1-expressing COS cells (COS-NRP1) were cultured on 12-wells plates on poly-L-lysine-coated glass coverslips (0.005 mg/ml). After one-hour incubation with pTM-NRP1 or pTM-NRP1^mut (10^−9M) in serum-free medium at 37° C., the culture medium was replaced by conditioned medium containing alkaline phosphatase-coupled Sema3A (AP-Sema3A; BAGNARD et al., 1998) obtained from AP-Sema3A stably expressing HEK cells for 90 mn. Conditioned medium without semaphorin served as a control (obtained from non-transfected HEK). Cells were washed three times with PBS and fixed in 4% formaldehyde before transfer in a new dish. After three washes in PBS, the plate was warmed for 50 mn at 65° C. Cells were subsequently incubated with 1 ml of alkaline phosphatase substrate (NBT/BCIP, SIGMA) in the dark. After 45 mn, substrate was removed and glass coverslips were rinsed. Pictures were acquired with a conventional microscope and analyzed with AxioVision LE Zeiss software. For each condition tested, about 60 cells were analyzed to determine binding levels as a function of optical density. Statistical analysis was performed by using a Student's t test.

[3] = molecular target: T2, NRP1 (Rattus norvegicus, UniProt Q9QWJ9); test: AP-Sema3A binding to its receptor NRP1 on C6 glioma cells (luminescence)
T2 construct: Rat C6 glioma cells, which express semaphorin receptors; endogenous in cells; host or cells: rat C6 glioma cells
Method: In order to investigate the NRP1 transmembrane domain role in the linkage NRP1-class III semaphorins, the binding of the ligand Sema3A to its receptor NRP1 on glioma cells was measured in the presence or not of the transmembrane domain peptide of NRP1 (pTM-NRP1 peptide; SEQ ID NO. 1) or of a mutated peptide (mpTM-NRP1; SEQ ID NO. 20, […]). These pTM-NRP1 Peptides have been synthesized by automatic peptidic synthesis (Fmoc chemistry, APPLIED SYSTEM), and analyzed by mass spectrometry. Peptides purity has been estimated by RP-HPLC (BECKMAN) as higher than 90%.
Rat C6 glioma cells, which express semaphorin receptors, has been used to determine the binding capacity of AP-Sema3A, a secreted alkaline phosphatase version of Sema 3A (ADAMS et al., 1997, BAGNARD et al., 1998). These cells were grown and plated in MEM medium (GIBCO) with 10% foetal calf serum (PERBIO), glutamine 0.5 mM (GIBCO) and antibiotics: 100 U/ml penicillin and 100 μg/ml streptomycin (SIGMA).
C6 Cells were cultured in 96-well plates and incubated with or without freshly diluted pTM-NRP1 or pTM-NRP1^mut peptides (10^−12 M to 10^−10 M) for 1 hour at 37° C. The culture medium has been then replaced by conditioned medium of HEK cells stably transfected with a construction expressing AP-Sema 3A (ADAMS et al., EMBO J., vol. 16(20), p: 6077-86, 1997; BAGNARD et al., 1998). Conditioned medium from HEK non transfected cells has been used as an internal control. The pTM-NRP1 Peptide has been synthesized by automatic peptidic synthesis (Fmoc chemistry, APPLIED SYSTEM), and analyzed by mass spectrometry. Peptides purity has been estimated by RP-HPLC (BECKMAN) as higher than 90%, the cells have been washed with PBS and incubated with 50 μl of alkaline phosphatase luminescent substrate (AMERSHAM). The luminescence has been read after 15 minutes with MICROLUMAT PLUS system (BERTHOLD TECHNOLOGIES) according to the manufacturer's instructions. Experiments were done 4 times for each peptide.

T1 sequence (O14786 22-923): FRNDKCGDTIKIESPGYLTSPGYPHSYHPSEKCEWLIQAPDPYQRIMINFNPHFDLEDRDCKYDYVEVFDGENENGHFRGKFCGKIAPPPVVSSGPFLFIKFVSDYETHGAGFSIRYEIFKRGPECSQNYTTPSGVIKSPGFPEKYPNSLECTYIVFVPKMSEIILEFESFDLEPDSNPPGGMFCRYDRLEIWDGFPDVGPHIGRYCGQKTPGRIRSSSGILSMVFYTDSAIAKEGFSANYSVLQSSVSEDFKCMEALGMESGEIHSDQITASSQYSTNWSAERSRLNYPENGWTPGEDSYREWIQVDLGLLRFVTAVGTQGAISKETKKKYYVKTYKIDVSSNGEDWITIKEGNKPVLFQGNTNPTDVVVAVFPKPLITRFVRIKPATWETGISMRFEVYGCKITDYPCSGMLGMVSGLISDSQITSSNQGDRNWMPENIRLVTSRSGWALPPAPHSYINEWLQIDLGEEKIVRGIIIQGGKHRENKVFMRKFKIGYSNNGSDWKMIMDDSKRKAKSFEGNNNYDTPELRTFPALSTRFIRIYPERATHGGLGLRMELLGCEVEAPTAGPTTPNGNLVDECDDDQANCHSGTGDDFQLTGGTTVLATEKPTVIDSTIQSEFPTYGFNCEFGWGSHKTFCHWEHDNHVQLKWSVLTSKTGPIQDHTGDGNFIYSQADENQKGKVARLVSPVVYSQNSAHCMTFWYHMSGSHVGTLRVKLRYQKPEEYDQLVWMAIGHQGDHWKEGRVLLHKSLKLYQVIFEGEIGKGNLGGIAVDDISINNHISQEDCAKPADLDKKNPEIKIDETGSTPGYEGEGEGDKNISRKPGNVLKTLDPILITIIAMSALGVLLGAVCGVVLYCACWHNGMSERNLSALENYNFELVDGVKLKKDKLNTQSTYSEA

binding of AP-Sema3A to NRP1-expressing COS cells [2]: significantly reduced
decrease of binding of AP-Sema3A to NRP1 compared to the absence of peptide ([3]; C6 cells, peptide 10^−10 M): about 50%
binding of AP-Sema3A to its receptor NRP1 on C6 cells ([3]; peptide 10^−12 M to 10^−10 M, 1 hour): blocked in a dose dependent manner
Sequence: ILITIIAMSALGVLLGAVCGVVL [pTM-NRP1]
effect on cellular collapses of COS-1 cells triggered by Sema 3A [1]: completely abolished
